Test results published in patent publication US8378117B2 (priority 2005, dated 2013).
Read-outs that look alike come from different tables or passages of the source.

Columns and labels:
[1] = target: T1, CB1 receptor (Homo sapiens, UniProt P21554); assay: Binding assay for CB1 agonists or inverse agonists (SK-N-MC membranes, [3H]-CP-55,940); details: for inhibition at 0.2 µM: read-out: CB1 receptor binding percent inhibition, test concentration 0.2 μM (footnote 2); for CB1 receptor binding average percent inhibition: value shown is an average percent inhibition (footnote 5), concentration not given
T1 construct: expressed in transfected cells
T1 sequence (P21554 whole entry): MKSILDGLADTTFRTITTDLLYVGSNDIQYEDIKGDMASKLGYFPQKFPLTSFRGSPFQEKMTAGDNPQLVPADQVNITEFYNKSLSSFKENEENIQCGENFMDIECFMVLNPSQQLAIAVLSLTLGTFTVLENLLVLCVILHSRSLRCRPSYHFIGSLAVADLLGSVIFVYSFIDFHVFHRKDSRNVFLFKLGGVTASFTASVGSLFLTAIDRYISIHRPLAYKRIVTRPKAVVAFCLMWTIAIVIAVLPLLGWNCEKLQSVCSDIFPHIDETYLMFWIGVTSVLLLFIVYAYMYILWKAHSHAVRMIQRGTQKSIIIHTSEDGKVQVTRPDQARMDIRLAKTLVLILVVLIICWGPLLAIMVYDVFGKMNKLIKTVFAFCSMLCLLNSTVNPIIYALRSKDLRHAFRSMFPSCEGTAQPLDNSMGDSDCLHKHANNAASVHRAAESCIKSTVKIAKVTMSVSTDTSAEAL
Outline: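 Radioligand displacement: [3H]-CP-55,940 at […], 90 min at 30° C, pH 7.5 Tris buffer with 0.5 mg/mL fatty-acid-free BSA, using semi-purified membranes of human-CB1-transfected SK-N-MC cells. Bound counts collected on GF/C filters, 10 uM WIN 55,212 for non-specific; IC50 from percent inhibition over several concentrations.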

[2] = target: T2, CB2 receptor (Homo sapiens, UniProt P34972); assay: Binding assay for CB2 agonists or inverse agonists (SK-N-MC membranes, [3H]-CP-55,940); details: for inhibition at 0.2 µM: read-out: CB2 receptor binding percent inhibition, test concentration 0.2 μM (footnote 2); for CB2 receptor binding percent inhibition: test concentration not stated
T2 construct: expressed in transfected cells
T2 sequence (P34972 whole entry): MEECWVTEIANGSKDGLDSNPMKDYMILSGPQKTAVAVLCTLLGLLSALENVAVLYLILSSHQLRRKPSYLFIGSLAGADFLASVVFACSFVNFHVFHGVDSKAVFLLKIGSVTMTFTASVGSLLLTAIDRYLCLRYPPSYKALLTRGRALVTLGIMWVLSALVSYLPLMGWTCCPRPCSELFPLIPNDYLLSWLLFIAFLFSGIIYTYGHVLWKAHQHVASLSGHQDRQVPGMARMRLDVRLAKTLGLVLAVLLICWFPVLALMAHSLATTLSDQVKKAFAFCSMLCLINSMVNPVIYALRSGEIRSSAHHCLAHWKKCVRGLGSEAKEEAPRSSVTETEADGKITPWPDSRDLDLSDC
Outline: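 IC50 came from percent-inhibition data over several compound concentrations, fitted by linear regression. Binding used semi-purified membranes of human CB2-transfected SK-N-MC cells, 90 min at 30 °C, pH 7.5 Tris-HCl with MgCl2, EDTA and BSA, then filtration and scintillation counting.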

[3] = target: T1, CB1 receptor; assay: cell-based
Outline: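 Read-out is forskolin-driven CRE-β-gal reporter activity in stably transfected human-CB1 SK-N-MC cells, normalised to vehicle (100%); agonism lowers, inverse agonism raises signal. Values are EC50 (linear regression, multiple concentrations) or % change at one concentration.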

[4] = Cannabinoid CB1 Receptor Binding IC50, calculated by linear regression from percent inhibition at various test concentrations
[5] = CB1 Receptor Functional Inverse Agonist EC50, forskolin induced β-galactosidase activity, SK-N-MC cells
[6] = read-out: CB1 receptor binding percent inhibition, test concentration 1 μM (footnote 1)
[7] = forskolin induced β-galactosidase activity, SK-N-MC cells, read-out: CB1 Receptor Functional Inverse Agonist EC50
[8] = Cannabinoid CB2 Receptor Binding IC50, calculated by linear regression from percent inhibition at various test concentrations
[9] = CB1 Receptor Functional Agonist EC50, SK-N-MC cells, forskolin induced β-galactosidase activity

Row | Compound | IC50 [1, 4] [µM] | inhibition at 0.2 µM [1] [%] | inhibition at 0.2 µM [2] [%] | EC50 [3, 5] [µM] | CB2 receptor binding percent inhibition [2] [%] | also measured
1 | COc1ccc(/C=C2\CCCCc3c(C(=O)N[C@H](CO)c4ccccc4)nn(-c4ccc(Cl)cc4Cl)c32)cc1 [Cpd 215, (8E)-1-(2,4-dichloro-phenyl)-8-(4-methoxy-benzylidene)-1,4,5,6,7,8-hexahydro-cycloheptapyrazole-3-carboxylic acid [(1S)-2-hydroxy-1-phenyl-ethyl]-amide] | 0.01 | 88 | 24 | 0.01 |  | 
2 | O=C(NC1CCCc2ccccc21)c1nn(-c2ccc(Cl)cc2Cl)c2c1CCCC/C2=C\c1ccc(F)cc1 (stereo not drawn) [Cpd 209, (8E)-1-(2,4-dichloro-phenyl)-8-(4-fluoro-benzylidene)-1,4,5,6,7,8-hexahydro-cycloheptapyrazole-3-carboxylic acid (1,2,3,4-tetrahydro-naphthalen-1-yl)-amide] | 0.03 | 88 | 8 | 0.01 |  | 
3 | Cn1nc(/C=C/S(=O)(=O)NN2CCCCC2)c2c1C(Cc1cccc(F)c1)CCCC2 (stereo not drawn) [Cpd 124, (2E)-2-[8-(3-fluoro-benzyl)-1-methyl-1,4,5,6,7,8-hexahydro-cycloheptapyrazol-3-yl]-ethenesulfonic acid piperidin-1-ylamide] |  |  |  |  | 47 | inhibition at 1 µM [1, 6]: 14%; EC50 [3, 7]: 3.4 µM
4 | C[C@H](NS(=O)(=O)/C=C/c1nn(-c2ccc(F)cc2F)c2c1CCCCC2Cc1cccc(F)c1)c1ccccc1 (stereo partly drawn) [Cpd 93, (2E)-2-[1-(2,4-difluoro-phenyl)-8-(3-fluoro-benzyl)-1,4,5,6,7,8-hexahydro-cycloheptapyrazol-3-yl]-ethenesulfonic acid [(1S)-1-phenyl-ethyl]-amide] | 0.4 |  |  | 0.05 | 58 | inhibition at 1 µM [1, 6]: 70%
5 | O=C(N[C@H]1c2ccccc2C[C@H]1O)c1nn(-c2ccc(Cl)cc2Cl)c2c1CCCC/C2=C\c1ccc(F)cc1 [Cpd 208, (8E)-1-(2,4-dichloro-phenyl)-8-(4-fluoro-benzylidene)-1,4,5,6,7,8-hexahydro-cycloheptapyrazole-3-carboxylic acid [(1S,2R)-2-hydroxy-indan-1-yl]-amide] | 0.07 | 76 | 31 | 0.01 |  | 
6 | COC(=O)[C@@H](Cc1ccc(F)cc1)NC(=O)c1nn(-c2ccc(Cl)cc2Cl)c2c1CCCC[C@H]2Cc1cccc(F)c1 [Cpd 78, (2R)-2-{[(8S)-1-(2,4-dichloro-phenyl)-8-(3-fluoro-benzyl)-1,4,5,6,7,8-hexahydro-cycloheptapyrazole-3-carbonyl]-amino}-3-(4-fluoro-phenyl)-propionic acid methyl ester] | 0.4 |  |  | 0.2 | 23 | CB1 receptor binding average percent inhibition [1]: 59%
7 | COC(=O)[C@@H](Cc1ccc(O)cc1)NC(=O)c1nn(C2CCCCC2)c2c1CCCCC2Cc1ccc(F)cc1 (stereo partly drawn) [Cpd 83, (2R)-2-{[1-cyclohexyl-8-(4-fluoro-benzyl)-1,4,5,6,7,8-hexahydro-cycloheptapyrazole-3-carbonyl]-amino}-3-(4-hydroxy-phenyl)-propionic acid methyl ester] | 0.1 |  |  |  |  | CB1 receptor binding average percent inhibition [1]: 90%; IC50 [2, 8]: 0.01 µM; CB2 receptor binding average percent inhibition ([2]; value shown is an average percent inhibition (footnote 5), concentration not given): 98%; EC50 [3, 9]: 1.7 µM
8 | O=C(NCc1ccccn1)c1nn(-c2ccc(Cl)cc2Cl)c2c1CCCC/C2=C\c1ccc(Cl)cc1 [Cpd 155, (8E)-8-(4-chloro-benzylidene)-1-(2,4-dichloro-phenyl)-1,4,5,6,7,8-hexahydro-cycloheptapyrazole-3-carboxylic acid (pyridin-2-ylmethyl)-amide] | 0.07 | 72 | 8 | 0.03 |  | 
9 | C[C@H](NC(=O)c1nn(-c2cc(Cl)ccc2Cl)c2c1CCCC/C2=C\c1ccc(Cl)cc1)C1CCCCC1 [Cpd 197, (8E)-8-(4-chloro-benzylidene)-1-(2,5-dichloro-phenyl)-1,4,5,6,7,8-hexahydro-cycloheptapyrazole-3-carboxylic acid [(1S)-1-cyclohexyl-ethyl]-amide] | 0.03 | 83 | 67 | 0.003 |  | 
10 | O=C(N[C@@H](CO)c1ccccc1)c1n[nH]c2c1CCCCC2Cc1cccc(Cl)c1 (stereo partly drawn) [Cpd 165, 8-(3-chloro-benzyl)-1,4,5,6,7,8-hexahydro-cycloheptapyrazole-3-carboxylic acid [(1R)-2-hydroxy-1-phenyl-ethyl]-amide] |  | 79 | 98 |  |  | EC50 [3, 9]: 0.03 µM
11 | COc1ccc(/C=C2\CCCCc3c(C(=O)NC(C)(C)c4ccccc4)nn(-c4ccc(Cl)cc4Cl)c32)cc1 [Cpd 211, (8E)-1-(2,4-dichloro-phenyl)-8-(4-methoxy-benzylidene)-1,4,5,6,7,8-hexahydro-cycloheptapyrazole-3-carboxylic acid (1-methyl-1-phenyl-ethyl)-amide] | 0.007 | 92 | 37 | 0.02 |  | 
12 | O=C(c1nn(-c2ccc(F)cc2F)c2c1CCCCC2Cc1cccc(F)c1)N1CCOCC1 (stereo not drawn) [Cpd 118, [1-(2,4-difluoro-phenyl)-8-(3-fluoro-benzyl)-1,4,5,6,7,8-hexahydro-cycloheptapyrazol-3-yl]-morpholin-4-yl-methanone] |  |  |  | 0.1 | 31 | inhibition at 1 µM ([1]; read-out: CB1 receptor binding percent inhibition): 4%
13 | CC12CCC(C1)C(C)(C)[C@H]2NC(=O)c1nn(-c2ccc(F)cc2F)c2c1CCCCC2Cc1cccc(F)c1 (stereo partly drawn) [Cpd 92, 1-(2,4-difluoro-phenyl)-8-(3-fluoro-benzyl)-1,4,5,6,7,8-hexahydro-cycloheptapyrazole-3-carboxylic acid [(2S)-1,3,3-trimethyl-bicyclo[2.2.1]hept-2-yl]-amide] | 0.1 |  |  | 0.09 |  | inhibition at 1 µM [1, 6]: 86%; IC50 [2, 8]: 0.2 µM; inhibition at 1 µM ([2]; read-out: CB2 receptor binding percent inhibition, test concentration 1 μM (footnote 1)): 82%
14 | O=C(NN1CCCCC1)c1nn(-c2ccc(Cl)cc2Cl)c2c1CCCCC2Cc1ccc(F)cc1 (stereo not drawn) [Cpd 85, 1-(2,4-dichloro-phenyl)-8-(4-fluoro-benzyl)-1,4,5,6,7,8-hexahydro-cycloheptapyrazole-3-carboxylic acid piperidin-1-ylamide] |  |  |  |  | 5 | CB1 receptor binding average percent inhibition [1]: ^(5)39%; EC50 [3, 7]: 0.3 µM
15 | O=C(NN1CCOCC1)c1nn(-c2ccc(Cl)cc2Cl)c2c1CCCC/C2=C\c1ccc(F)cc1 [Cpd 151, (8E)-1-(2,4-dichloro-phenyl)-8-(4-fluoro-benzylidene)-1,4,5,6,7,8-hexahydro-cycloheptapyrazole-3-carboxylic acid morpholin-4-ylamide] |  | 51 | 15 | 0.06 |  | 
16 | O=C(NN1CCCCC1)c1nn(-c2ccc(Cl)cc2Cl)c2c1CCCCC2Cc1cccc(F)c1 (stereo not drawn) [Cpd 84, 1-(2,4-dichloro-phenyl)-8-(3-fluoro-benzyl)-1,4,5,6,7,8-hexahydro-cycloheptapyrazole-3-carboxylic acid piperidin-1-ylamide] | 0.7 |  |  | 0.1 | 11 | CB1 receptor binding average percent inhibition [1]: 67%
17 | O=C(NN1CCOCC1)c1nn(-c2ccc(F)cc2F)c2c1CCCCC2Cc1cccc(F)c1 (stereo not drawn) [Cpd 116, 1-(2,4-difluoro-phenyl)-8-(3-fluoro-benzyl)-1,4,5,6,7,8-hexahydro-cycloheptapyrazole-3-carboxylic acid morpholin-4-ylamide] |  |  |  |  | 24 | inhibition at 1 µM [1, 6]: 14%; EC50 ([3]; SK-N-MC cells, forskolin induced β-galactosidase activity, read-out: CB1 Receptor Functional Agonist EC50): 0.3 µM
18 | CC12CCC(C1)C(C)(C)[C@H]2NC(=O)c1nn(-c2ccc(Cl)cc2Cl)c2c1CCCCC2Cc1cccc(F)c1 (stereo partly drawn) [Cpd 42, 1-(2,4-dichloro-phenyl)-8-(3-fluoro-benzyl)-1,4,5,6,7,8-hexahydro-cycloheptapyrazole-3-carboxylic acid [(2S)-1,3,3-trimethyl-bicyclo[2.2.1]hept-2-yl]-amide] |  |  |  |  |  | IC50 ([1]; calculated by linear regression from percent inhibition at various test concentrations, read-out: Cannabinoid CB1 Receptor Binding IC50): 0.3 µM; inhibition at 1 µM [1, 6]: 65%; IC50 ([2]; calculated by linear regression from percent inhibition at various test concentrations, read-out: Cannabinoid CB2 Receptor Binding IC50): 0.3 µM; inhibition at 1 µM ([2]; test concentration 1 μM (footnote 1), read-out: CB2 receptor binding percent inhibition): 52%; EC50 [3, 7]: 0.3 µM
19 | O=C(NCc1ccncc1)c1nn(-c2ccc(Cl)cc2Cl)c2c1CCCC/C2=C\c1ccc(Cl)cc1 [Cpd 156, (8E)-8-(4-chloro-benzylidene)-1-(2,4-dichloro-phenyl)-1,4,5,6,7,8-hexahydro-cycloheptapyrazole-3-carboxylic acid (pyridin-4-ylmethyl)-amide] |  | 50 | 36 | 0.09 |  | 
